Data from US7652172B2, “Expeditious synthesis of DPD” (The Trustees of Princeton University, priority 2004, dated 2010).

Legend:
[1] = tested on: V. harveyi strain MM32 (luxN− luxS−); experiment: V. harveyi autoinducer bioassay (light emission); type: cell-based; details: for activity compared with enzymatically prepared DPD in the V. harveyi bioassay: equal concentration, 0.5 M potassium phosphate buffer, pH 7.3
Method: (§1) V. harveyi strain MM32 (luxN^− luxS^−) was grown overnight and subsequently diluted 5.000-fold in AB growth medium. This bioassay was performed as developed by the method of Schauder et. al. (2001). To 90 μL of diluted cells ,10 μL of various compounds were added, and the resulting cultures were further incubated in a 96-well microtiter dish at 30° C. for approximately 6 h. The concentration of crude DPD was calculated by measuring the amount of homocysteine released in an Ellman's test. Light emission was measured using a Wallac model 1450 microbeta Plus scintillation counter.
A. Comparative bioactivity of enzymatically-produced DPD, synthetic DPD and synthetic ent-DPD. Each of these three compounds and a blank were assessed in the above bioassay at equal concentrations. The bio assays were conducted with a dilution of 0.53 mM enzymatically-produced DPD, a dilution of 5.0 mM synthetic DPD or a dilution of 5.0 mM ent-DPD.

[2] = 11B NMR DPD-borate binding study; type: physicochemical; details: 100 μM DPD in 400 μM B(OH)3, pH 7.5
Method: To explore the binding of DPD with borate under conditions that more closely resemble those in the natural habitat of V. harveyi and to correlate this study with previous work using DPD produced in vivo and released from the V. harveyi receptor protein, LuxP, the ^11B NMR spectrum of a 100 μM DPD solution in 400 μM B(OH)3 (Dickson et al. 1990) at pH 7.5 was recorded. […] Based on the ratio of integrals for the B(OH)3 peak and the DPD:borate peak, the concentration of DPD:borate complex was calculated to be ca 10 μM. consistent with ca 10% DPD bound at this dilution. We were unable to observe conclusively the presence of complexes with a 2:1 DPD:borate stoichiometry due to sensitivity limitations of the ^11B NMR experiment, although a peak with a S/N of 2 was recorded at δ 9.8 ppm.
To explore further the ability of DPD to complexborate at more physiologically relevant concentrations, a mixture of 10 μL of 40 mM B(OH)3, […] of 10 mM DPD, 100 μL of 1 M potassium phosphate buffer (pH 7), 200 μL of sat. NaHCO3 and 680 μL of D2O was produced to generate a 100 μM DPD solution in 400 μM B(OH)3, at pH 7.5. This solution was then analyzed by ^11B NMR to determine binding, as discussed in the Detailed Description of the Invention.

[3] = Stability of DPD in aqueous solution monitored by 1H NMR; type: physicochemical
Method: Synthetically-produced DPD was stable under acidic conditions; a 30 mM sample of the molecule was monitored for decomposition via ^1H NMR for 5 h at 20° C. and pH 1.5. […] The purity of the synthetic DPD was further established by reaction with o-phenylenediamine to produce (S)-1-(3-methylquioxalin-2-yl)-ethane-1,2-diol in >98% purity.
To a suspension of 11 (9.6 mg, […]) in D2O) (1.5 mL) was added conc. D2SO4 (1.5 μL, final pD1.5). The reaction was allowed to continue for 5 h and was monitored by ^1H NMR. A ^1H-^1H DQCOSY spectrum was recorded at the 5-h time point to help establish the identity of each ^1H signal. […] The extra signals in the region form 1.35-1.45 ppm and 3.4-4.6 ppm are most likely due to a small amount of 1 that is not hydrated at C3. This hypothesis is supported by the complete disappearance of these peaks upon addition of 1,2-phenylenediamine (see Example 13)

[4] = tested on: V. harveyi strain MM32 (luxN− luxS−); experiment: Effects of low pH on DPD bioactivity (V. harveyi bioassay after acid treatment); type: cell-based
Method: as §1
B. Effects of low pH on enzmmatically-produced DPD bioactivity. Enzymatically produced DPD (0.53 mM stock concentration) was mixed with sulfuric or hydrochloric acid at a ratio of 1 μL H2SO4 or 5 μL HCl to 250 μL DPD, resulting in solutions with a pH of 1.5 (with H2SO4) or 2 (with HCl). At times indicated, 1 M Tris pH 8.5 was added to restore the pH to neutral and bioactivity was determined. […] Similar results were obtained after exposure to H2SO4 (not shown).
C. Effects of low pH on synthetic DPD bioactivity. Synthetically-produced DPD (100 mM stock concentration) was mixed with H2SO4 at a ratio of 1 μL H2SO4 to 250 μL DPD, resulting in solutions with a pH of 1.3. After 16 h, 1 M Tris pH 8.5 was added at a ratio of 5 μL buffer to 20 uL DPD solution to restore the pH to 7.5.

cell growth = experiment: Cell growth inhibition by deprotection by-product; type: cell-based; details: concentrations under 1 M

Compound: CC(=O)C(=O)C(O)CO (stereo not shown) [DPD, 4,5-dihydroxypentane-2,3-dione]
- activity in the V. harveyi autoinducer-bioassay ([1]; deprotection solution with excess borate at pH 7.8, without further purification): active
- activity compared with enzymatically prepared DPD in the V. harveyi bioassay [1]: equal
- activity compared with enzymatically prepared DPD in the V. harveyi bioassay ([1]; listed as synthetic DPD): equal in activity
- DPD bound to borate [2]: ~10%
- concentration of DPD:borate complex ([2]; from ratio of 11B NMR integrals): ~10 µM
- decomposition under acidic conditions by 1H NMR ([3]; 30 mM, 5 h at 20° C., pH 1.5): no decomposition products were observed
- stability at basic pH ([3]; pH>8, unless bound to borate): less stable
- change in bioactivity after storage under acidic conditions ([4]; pH 1.5-2, dilute aqueous solution, 16 h at 20° C., DPD at least 30 mM and up to 100 mM): no significant decrease in bioactivity
- effect of acid treatment on autoinducer activity ([4]; synthetic, 100 mM, pH 1.3, 16 h, 20° C., listed as Synthetically-produced DPD): no loss in activity
- effect of acid treatment on autoinducer activity ([4]; synthetic, 100 mM, pH 1.3, 16 h, 20° C., listed as synthetic DPD): did not change the auto inducer activity

Compound: CC(=O)C(=O)[C@H](O)CO [Ent-DPD]
- activity relative to DPD (1) in the V. harveyi bioassay [1]: 1%

Compound: O=C1CCCCC1 [cyclohexanone]
- inhibition of cell growth (cell growth): does not inhibit cell growth

Compound: CC(=O)C(=O)C(O)CO (stereo not shown) [enzymatically-produced DPD, 4,5-dihydroxypentane-2,3-dione, reference compound]
- effect of acid treatment on autoinducer activity ([4]; enzymatically produced, 0.53 mM stock, pH 1.5 (H2SO4) or 2 (HCl), up to 16 h): did not affect the autoinducer activity
